Measurements: PubChem BioAssay AID2060882 (Molecular Pharmacology Branch, DTP, NCI, 2025)

System: 898857-211-R-J1-PDC complex spheroids, growth % test/control
Assay: Anticancer human tumor 898857-211-R-J1-PDC patient-derived melanoma cell line growth inhibition [RAS]
Conditions: for IC50: curve of first compound; for viability, T/C: stronger effect = lower value
Description: RAS pathway inhibitors in Combinations in Complex Spheroids
A high-throughput screen of multi-cell type tumor spheroids was designed to identify active combinations of RAS pathway inhibitors and targeted small molecules. Complex spheroids include a stromal component modeled by human endothelial cells (HUVEC) and fibroblasts modeled by human mesenchymal stem cells (MSCs). The concentration ranges selected for each drug and investigational agent were based upon clinically achievable concentrations if the clinical Cmax of the agent was known.
Compounds. The drugs and investigational agents: abemaciclib (NSC768073), cobimetinib (NSC768068), divarasib (GDC6063, NSC841802), docetaxel (NSC628503), GDC-1971 (RLY-1971, NSC841576), gemcitabine (NSC613327), inavolisib (NSC800729), ipatasertib (NSC767898), KB-0742 (NSC834161), MRTX-1133 (NSC836407), osimertinib (NSC779217), RMC-4630 (NSC839698), RMC-6236 (NSC851965), RMC-6291 (NSC852671), Ro-3306 (NSC812927), sapanisertib (NSC764658), SN-38 (NSC673596), staurosporine (NSC755774), SY5609 (NSC837396), and tovorafenib (DAY101, NSC766906), were obtained from the National Cancer Institute (NCI) Developmental Therapeutics Program Chemical Repository. The FDA-approved anticancer drug set is available from the NCI Developmental Therapeutics Program. […] The stock solutions were prepared in dimethyl sulfoxide (DMSO, Sigma-Aldrich, St. Louis, MO, cat. D2650) at 800-fold the tested concentration and stored at -70 degrees C prior to their use. All drugs and investigational agents were tested over a range starting from a high concentration at or near the clinical Cmax and decreasing in half-log increments. If the clinical Cmax for an agent had not been determined, the highest concentration tested was 10 microM.
Cell Culture. All cells were maintained in an incubator at 37 degrees C and 5% CO2 with 95% humidity. The PDC lines were cultured according to standard operating procedures established by the NCI PDMR. All PDCs were thawed and cultured in Matrigel-coated flasks prepared with a working solution of 1X Ham's F-12 nutrient mix, without supplementation (Invitrogen, Waltham, MA, cat. 11765054), 100 U/mL penicillin-streptomycin (Invitrogen, cat. 15140122), and 2.5% Matrigel (Corning Inc., Corning, NY, cat. 354248) for the first three passages. The 362531-283-R-J2-PDC and 782815-120-R-J1-PDC lines were cultured in 6C/Colon 1B media, which includes advanced DMEM/F-12 (Thermo Fisher Scientific, cat. 12634028), 10 mM HEPES (Thermo Fisher Scientific, cat. 15630080), 1X GlutaMAX supplement (Thermo Fisher Scientific, cat. 35050061), 0.1 mg/mL primocin (InvivoGen, San Diego, CA, cat. ant-pm-2), 10% defined fetal bovine serum, heat inactivated (HyClone Laboratories Inc., Logan, UT, cat. SH30070.03HI), 50% L-WRN conditioned media (ATCC, cat. CRL-3276), 1.25 mM N-Acetyl-L-cysteine (Sigma-Aldrich, cat. A9165), 10 mM nicotinamide (Sigma-Aldrich, cat. N0636), 1X B-27 supplement (Thermo Fisher Scientific, cat. 17504044), 1X N-2 supplement (Thermo Fisher Scientific, cat. 17502048), 50 ng/mL human EGF (Thermo Fisher Scientific, cat. PHG0311), and 10 microM Y-27632 dihydrochloride (Tocris Bioscience, cat. 1254). The K12877-001-R-J1-PDC line was cultured in 6I media, which includes all 6C/Colon 1B media plus 10 ng/mL human FGF-10 (PeproTech, cat. 100-26), 1 ng/mL human FGF-2 (PeproTech, cat. 100-18B), 1 µM prostaglandin E2 (Tocris Bioscience, cat. 2296), […] hydrocortisone (Sigma-Aldrich, cat. H4001), and […] bovine insulin (Sigma-Aldrich, cat. I6634). The K86415-001-R-J1-PDC line was cultured in 6D media, which includes all 6C/Colon 1B media components minus the L-WRN conditioned media. The 485176-168-R4-J1-PDC was cultured in PANC media, which includes all 6C/Colon 1B media plus 100 ng/mL human FGF-10 (PeproTech, cat. 100-26), 500 nM SB-431542 (Selleckchem, cat. S1067), and 10 nM gastrin (Tocris Bioscience, cat. 3006). […]
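Also: spheroids exposed to compound for seven days before readout.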
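For viability, T/C in this document: 100% = DMSO vehicle control wells.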

With `CC1(O)CCCC1n1c(=O)c(C(F)F)cc2cnc(NC3CCN(S(C)(=O)=O)CC3)nc21` (configuration not stated) + C#Cc1c(F)ccc2cc(O)cc(-c3ncc4c(N5CC6CCC(C5)N6)nc(OCC56CCCN5CC(F)C6)nc4c3F)c12 the IC50 (second compound 0.0316 µM) was 584 nM, the IC50 (second compound 0.1 µM) was 129 nM and the IC50 (second compound 0.316 µM) was 334 nM. For the same compound, the IC50 (second compound 1 µM) was 529 nM, the IC50 (second compound 3.16 µM) was 321 nM and the IC50 (second compound 10 µM) was < 31.6 nM. It also gave a viability, T/C (second compound 0.0316 µM, first compound 0.0316 µM) of 66.1%, a viability, T/C (second compound 0.0316 µM, first compound 0.1 µM) of 53.6% and a viability, T/C (second compound 0.0316 µM, first compound 0.316 µM) of 44.3%. It also gave a viability, T/C (second compound 0.0316 µM, first compound 1 µM) of 49.5%, a viability, T/C (second compound 0.0316 µM, first compound 3.16 µM) of 43.1% and a viability, T/C (second compound 0.0316 µM, first compound 10 µM) of 19.9%. It also gave a viability, T/C (second compound 0.1 µM, first compound 0.0316 µM) of 95%, a viability, T/C (second compound 0.1 µM, first compound 0.1 µM) of 52.6% and a viability, T/C (second compound 0.1 µM, first compound 0.316 µM) of 38.7%. It also gave a viability, T/C (second compound 0.1 µM, first compound 1 µM) of 43.4%, a viability, T/C (second compound 0.1 µM, first compound 3.16 µM) of 48.3% and a viability, T/C (second compound 0.1 µM, first compound 10 µM) of 23.4%. It also gave a viability, T/C (second compound 0.316 µM, first compound 0.0316 µM) of 76.8%, a viability, T/C (second compound 0.316 µM, first compound 0.1 µM) of 50.7% and a viability, T/C (second compound 0.316 µM, first compound 0.316 µM) of 41.8%. For the same compound, the viability, T/C (second compound 0.316 µM, first compound 1 µM) was 49.8%, the viability, T/C (second compound 0.316 µM, first compound 3.16 µM) was 43.5% and the viability, T/C (second compound 0.316 µM, first compound 10 µM) was 19.4%. For the same compound, the viability, T/C (second compound 1 µM, first compound 0.0316 µM) was 79%, the viability, T/C (second compound 1 µM, first compound 0.1 µM) was 57.6% and the viability, T/C (second compound 1 µM, first compound 0.316 µM) was 46.2%. The viability, T/C (second compound 1 µM, first compound 1 µM) was 46.8%, the viability, T/C (second compound 1 µM, first compound 3.16 µM) was 48.3% and the viability, T/C (second compound 1 µM, first compound 10 µM) was 18.1%. It also gave a viability, T/C (second compound 3.16 µM, first compound 0.0316 µM) of 88.7%, a viability, T/C (second compound 3.16 µM, first compound 0.1 µM) of 54.5% and a viability, T/C (second compound 3.16 µM, first compound 0.316 µM) of 49.4%. It also gave a viability, T/C (second compound 3.16 µM, first compound 1 µM) of 41.5%, a viability, T/C (second compound 3.16 µM, first compound 3.16 µM) of 46.7% and a viability, T/C (second compound 3.16 µM, first compound 10 µM) of 16.5%. The viability, T/C (second compound 10 µM, first compound 0.0316 µM) was 37.5%, the viability, T/C (second compound 10 µM, first compound 0.1 µM) was 24.6% and the viability, T/C (second compound 10 µM, first compound 0.316 µM) was 26.9%. For the same compound, the viability, T/C (second compound 10 µM, first compound 1 µM) was 27.1%, the viability, T/C (second compound 10 µM, first compound 3.16 µM) was 35.8% and the viability, T/C (second compound 10 µM, first compound 10 µM) was 2.8%.
